Measured values reported in article PMC10287695, “Non-covalent inhibitors of thioredoxin glutathione reductase with schistosomicidal activity in vivo” (Nature Communications, 2023).
Values joined by “and” are separate entries in the source; they are usually repeats but may differ in a detail not shown here. Equal entries are not always repeated.

System: TGR in newly transformed schistosomula (NTS)
Assay: TGR inhibition in NTS with TRFS-Green fluorescent probe;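 also: untreated reference is NTS exposed to TRFS-Green probe alone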
Type: cell-based, S. mansoni
Settings: NTS
Protocol: TGR inhibition in NTS was assessed using a fluorescent probe TRFS-Green (Medchemexpress)[43]. NTS prepared as previously described and cultured in M199 supplemented with 5.5 mM D-glucose, penicillin-streptomycin and 5% heat inactivated fetal bovine serum were incubated at 37 °C in a clear bottom flat well plate in a 5% CO2 incubator overnight. […] NTS were further treated with TRFS-Green (10 µM) for additional 4 h and rinsed with M199 medium to remove residual TRFS-Green. Fluorescence images were obtained using Keyence BZ-X800. The quantification of fluorescence intensity upon the uptake of TRFS-Green by NTS was performed by a fluorescent microplate imager (BioTek Cytation3) (excitation, 438 nm; emission, 538 nm) hourly for 5 h and after 24 h.

SMILES	TGR inhibition visualized by TRFS-Green, Average (1hr, 5 µM)	TGR inhibition visualized by TRFS-Green, single replicate (1hr, 5 µM)	TGR inhibition visualized by TRFS-Green, Average (1hr, 15 µM)	TGR inhibition visualized by TRFS-Green, single replicate (1hr, 15 µM)	TGR inhibition visualized by TRFS-Green, Average (1hr, 30 µM)	TGR inhibition visualized by TRFS-Green, single replicate (1hr, 30 µM)	TGR inhibition visualized by TRFS-Green, Average (2hr, 5 µM)	TGR inhibition visualized by TRFS-Green, single replicate (2hr, 5 µM)	TGR inhibition visualized by TRFS-Green, Average (2hr, 15 µM)	TGR inhibition visualized by TRFS-Green, single replicate (2hr, 15 µM)	TGR inhibition visualized by TRFS-Green, Average (2hr, 30 µM)	TGR inhibition visualized by TRFS-Green, single replicate (2hr, 30 µM)	TGR inhibition visualized by TRFS-Green, Average (3hr, 5 µM)	TGR inhibition visualized by TRFS-Green, single replicate (3hr, 5 µM)	TGR inhibition visualized by TRFS-Green, Average (3hr, 15 µM)	TGR inhibition visualized by TRFS-Green, single replicate (3hr, 15 µM)	TGR inhibition visualized by TRFS-Green, Average (3hr, 30 µM)	TGR inhibition visualized by TRFS-Green, single replicate (3hr, 30 µM)	TGR inhibition visualized by TRFS-Green, Average (4hr, 5 µM)	TGR inhibition visualized by TRFS-Green, single replicate (4hr, 5 µM)	other results
Cc1oc(-c2ccc3c(c2)OCO3)nc1CN[C@@H]1C[C@@H]2C[C@H]([C@H]1C)C2(C)C [C1 (8VP70)]	10571.8	10560.7 and 10583	9457	9312 and 9602	9252.5	9204 and 9301	14162	14242 and 14082	13529	13095 and 13963	11887.5	11941 and 11834	23711	23581 and 23841	21817.5	21984 and 21651	16831	16892 and 16770	25462.5	25241 and 25684	TGR inhibition visualized by TRFS-Green, Average (4hr, 15 µM): 21898; TGR inhibition visualized by TRFS-Green, single replicate (4hr, 15 µM): 21795 and 22001; TGR inhibition visualized by TRFS-Green, Average (4hr, 30 µM): 16836.5; TGR inhibition visualized by TRFS-Green, single replicate (4hr, 30 µM): 16939 and 16734; TGR inhibition visualized by TRFS-Green, Average (5hr, 5 µM): 26920; TGR inhibition visualized by TRFS-Green, single replicate (5hr, 5 µM): 26917 and 26923; TGR inhibition visualized by TRFS-Green, Average (5hr, 15 µM): 22092; TGR inhibition visualized by TRFS-Green, single replicate (5hr, 15 µM): 23039 and 21145; TGR inhibition visualized by TRFS-Green, Average (5hr, 30 µM): 16893.5; TGR inhibition visualized by TRFS-Green, single replicate (5hr, 30 µM): 16853 and 16934; TGR inhibition visualized by TRFS-Green, Average (24hr, 5 µM): 28552; TGR inhibition visualized by TRFS-Green, single replicate (24hr, 5 µM): 28103 and 29001; TGR inhibition visualized by TRFS-Green, Average (24hr, 15 µM): 23755.5; TGR inhibition visualized by TRFS-Green, single replicate (24hr, 15 µM): 23599 and 23912; TGR inhibition visualized by TRFS-Green, Average (24hr, 30 µM): 16807; TGR inhibition visualized by TRFS-Green, single replicate (24hr, 30 µM): 16780 and 16834
CCc1ccccc1-c1nc(CN[C@@H]2C[C@@H]3C[C@H]([C@H]2C)C3(C)C)c(C)o1 [C2 (8VP101)]	10460.5	10308 and 10613	10104	10086 and 10122	9753	9694 and 9812	13787	13840 and 13734	11633.5	11622 and 11645	11195	11148 and 11242	19344	19467 and 19221	14723.5	14460 and 14987	13932.5	14033 and 13832	23362.5	23074 and 23651	TGR inhibition visualized by TRFS-Green, Average (4hr, 15 µM): 14824.5; TGR inhibition visualized by TRFS-Green, single replicate (4hr, 15 µM): 14826 and 14823; TGR inhibition visualized by TRFS-Green, Average (4hr, 30 µM): 13941.5; TGR inhibition visualized by TRFS-Green, single replicate (4hr, 30 µM): 13992 and 13891; TGR inhibition visualized by TRFS-Green, Average (5hr, 5 µM): 26593; TGR inhibition visualized by TRFS-Green, single replicate (5hr, 5 µM): 26274 and 26912; TGR inhibition visualized by TRFS-Green, Average (5hr, 15 µM): 16217; TGR inhibition visualized by TRFS-Green, single replicate (5hr, 15 µM): 16278 and 16156; TGR inhibition visualized by TRFS-Green, Average (5hr, 30 µM): 14810; TGR inhibition visualized by TRFS-Green, single replicate (5hr, 30 µM): 14697 and 14923; TGR inhibition visualized by TRFS-Green, Average (24hr, 5 µM): 29329.8; TGR inhibition visualized by TRFS-Green, single replicate (24hr, 5 µM): 29329.8; TGR inhibition visualized by TRFS-Green, Average (24hr, 15 µM): 17780.7; TGR inhibition visualized by TRFS-Green, single replicate (24hr, 15 µM): 17780.7; TGR inhibition visualized by TRFS-Green, Average (24hr, 30 µM): 15410.9; TGR inhibition visualized by TRFS-Green, single replicate (24hr, 30 µM): 15410.9
Cc1oc(C2CCCCC2)nc1CN[C@@H]1C[C@@H]2C[C@H]([C@H]1C)C2(C)C [C4 (8VP121-1)]	12224.5	12022 and 12427	11617.5	11812 and 11423	10356	10371 and 10341	19189	19355 and 19023	17814.5	17877 and 17752	13785	13959 and 13611	24561	24110 and 25012	22452	22972 and 21932	19172	19108 and 19236	26229	26469 and 25989	TGR inhibition visualized by TRFS-Green, Average (4hr, 15 µM): 23381.5; TGR inhibition visualized by TRFS-Green, single replicate (4hr, 15 µM): 23782 and 22981; TGR inhibition visualized by TRFS-Green, Average (4hr, 30 µM): 19196; TGR inhibition visualized by TRFS-Green, single replicate (4hr, 30 µM): 19157 and 19235; TGR inhibition visualized by TRFS-Green, Average (5hr, 5 µM): 27106; TGR inhibition visualized by TRFS-Green, single replicate (5hr, 5 µM): 27097 and 27115; TGR inhibition visualized by TRFS-Green, Average (5hr, 15 µM): 23897.5; TGR inhibition visualized by TRFS-Green, single replicate (5hr, 15 µM): 23926 and 23869; TGR inhibition visualized by TRFS-Green, Average (5hr, 30 µM): 21898.5; TGR inhibition visualized by TRFS-Green, single replicate (5hr, 30 µM): 21774 and 22023; TGR inhibition visualized by TRFS-Green, Average (24hr, 5 µM): 29485; TGR inhibition visualized by TRFS-Green, single replicate (24hr, 5 µM): 29989 and 28981; TGR inhibition visualized by TRFS-Green, Average (24hr, 15 µM): 27619.5; TGR inhibition visualized by TRFS-Green, single replicate (24hr, 15 µM): 27128 and 28111; TGR inhibition visualized by TRFS-Green, Average (24hr, 30 µM): 25005.5; TGR inhibition visualized by TRFS-Green, single replicate (24hr, 30 µM): 25040 and 24971
Cc1oc(C2CCCCC2)nc1C(=O)N[C@@H]1C[C@@H]2C[C@H]([C@H]1C)C2(C)C [C7 (8VP108)]	12657	12650 and 12664	10865	11062 and 10668	10431.5	10627 and 10236	18963	19690 and 18236	17493	17993 and 16993	16380.5	16170 and 16591	32388.5	32805 and 31972	28933.5	28944 and 28923	28582	28060 and 29104	35273.5	35655 and 34892	TGR inhibition visualized by TRFS-Green, Average (4hr, 15 µM): 29029; TGR inhibition visualized by TRFS-Green, single replicate (4hr, 15 µM): 29202 and 28856; TGR inhibition visualized by TRFS-Green, Average (4hr, 30 µM): 28478.5; TGR inhibition visualized by TRFS-Green, single replicate (4hr, 30 µM): 28833 and 28124; TGR inhibition visualized by TRFS-Green, Average (5hr, 5 µM): 39296; TGR inhibition visualized by TRFS-Green, single replicate (5hr, 5 µM): 39469 and 39123; TGR inhibition visualized by TRFS-Green, Average (5hr, 15 µM): 32855.5; TGR inhibition visualized by TRFS-Green, single replicate (5hr, 15 µM): 32828 and 32883; TGR inhibition visualized by TRFS-Green, Average (5hr, 30 µM): 29603; TGR inhibition visualized by TRFS-Green, single replicate (5hr, 30 µM): 29933 and 29273; TGR inhibition visualized by TRFS-Green, Average (24hr, 5 µM): 44285; TGR inhibition visualized by TRFS-Green, single replicate (24hr, 5 µM): 44288 and 44282; TGR inhibition visualized by TRFS-Green, Average (24hr, 15 µM): 35708; TGR inhibition visualized by TRFS-Green, single replicate (24hr, 15 µM): 35593 and 35823; TGR inhibition visualized by TRFS-Green, Average (24hr, 30 µM): 33705.5; TGR inhibition visualized by TRFS-Green, single replicate (24hr, 30 µM): 33980 and 33431
